The test system of one assay is all melanoma cells. Nature of the assay: Cell viability assay (PrestoBlue), summary over all melanoma cells. The settings on record: Homo sapiens, read-out: IC50 values. It counts as cell-based.
Assay [1] deals with melanoma cell cultures or cell lines. Kind of assay: Clonogenic assay. Type of assay: cell-based, human. The conditions noted are these: 48h at IC50 concentrations, then 10 days without drug. As to the method: Based on the cell viability assays conducted above, the efficacy of lurbinectedin, PM14 or Compound IA on melanoma cell proliferation was investigated. Initially, a clonogenic assay was performed. Cells were drug-treated at IC50 concentrations during 48h before seeding 1×10^3 or 2×10^3 cells in 6-well plates without drug, wherein they grew for 10 days to allow for colony formation. Afterwards, cells were fixed for 10min with 4% formaldehyde solution, washed once with PBS and stained with Crystal Violet solution 0.2% for 15 min. The wells were finally washed twice with deionized water, air dried, scanned and analyzed with Fiji software to count the number of colonies.

For assay [2], the system named is melanoma cells. Kind of assay: Cell proliferation by CellTrace Violet flow cytometry. The settings on record: IC50 concentrations, compared to DMSO. It counts as cell-based, human. As for the experimental part:
(§1) After 48h of incubation, cells were rinsed and incubated with AnnexinV-APC (BD Biosciences). Cell proliferation and apoptosis were detected on a BD LSRFortessaTM Flow Cytometer. Data were analyzed with FlowJo software. To define slow proliferating or apoptotic cells: it was considered that slow proliferating cells represented the 30% of cells with the highest concentration of CellTrace Violet signal in the DMSO control. […] For apoptotic cells, it was considered the 20% of cells with the highest signal of AnnexinV-APC in the DMSO control.
(In general: In flow cytometry, cells or beads pass a laser one at a time.)

The subject of a further assay is melanoma cells 501mel. Nature of the assay: Cell cycle analysis by flow cytometry (PI). The settings on record: IC50 concentrations. Type of assay: cell-based, human. As for the experimental part:
For cell cycle analysis, 2×10^6 cells were seeded in 6 well plates. […] After 2 washes with cold PBS, cells were incubated with RNAse A and PI for 1h in the dark, before being analyzed on a BD LSRFortessaTM Flow Cytometer. Data were analysed with FlowJo software.

Assay [3] has as its system melanoma cells. Kind of assay: Apoptosis by flow cytometry (AnnexinV-APC). Type of assay: cell-based, human. The conditions noted are these: IC50 concentrations, Annexin V-APC. As to the method:
as §1

The subject of assay [4] is RPB1 (RNA pol II elongation subunit). Nature of the assay: Immunoblotting of RPB1 in 501mel. Type of assay: cell-based, human. The settings on record: 24h at 5×IC50. As to the method: Cells were washed once with cold PBS, rinsed with a cell scraper, pelleted and resuspended in LSDB 0.5M buffer (0.5M KCI, 50mM Tris HCl pH 7.9, 20% Glycerol, 1% NP40, 1mM DTT, PIC). Afterwards cells were fully disrupted with 3 cycles of heat shock in liquid nitrogen and 37°C water bath and centrifugated 15min at 14,000rpm to pellet cell debris. Ten micrograms of extract were loaded on SDS-PAGE before transfer to nitro-cellulose membranes and immunoblotting.

In assay [5] the test system is MM074 melanospheres. Kind of assay: Melanosphere viability (CellTiterGlo). It counts as cell-based, human. The conditions noted are these: 72h, doses equivalent to 5×IC50. As for the experimental part:
(§2) MM074 proliferative/differentiated cell line were seeded (5×10^4 cells) in ultra-low attachment hydrogel-layered 96 well plates in KO DMEM medium supplemented with 20% KSR, AANE, 2 mM Glutamax, Penicillin/Streptomycin and 100 uM Beta-mercaptoethanol. To allow for melanosphere formation, cells were left to grow for 4 days before drug treatment.
To analyze melanosphere viability after drug treatment, cells were treated with CellTiterGlo reagent (Promega) according to the manufacturer's instructions. Luminescence signals were measured with a Centro XS LB 960 microplate reader (Berthold).
Background: ATP-based viability assays read luminescence as a measure of living cells.

In assay [6] the test system is MM074 melanospheres. Nature of the assay: Melanosphere apoptosis (AnnexinV-APC / propidium iodide). The settings on record: 72h. It counts as cell-based, human. As to the method: as §2
For apoptosis assays with 3D-grown melanoma cells, TrypLe Select 10x reagent (Gibco) was used to dissociate melanospheres to obtain single-cell suspensions. These cells were incubated with AnnexinV-APC (Biolegend) and Propidium Iodide (PI, Biolegend). With bivariant dot plots, it was distinguished between viable (AnnexinV-/PI-), early apoptotic (AnnexinV+/PI-), late apoptotic (AnnexinV+/PI+) and necrotic cells (AnnexinV-/PI+).

The subject of a further assay is Hermes3A. Nature of the assay: Cell viability assay (PrestoBlue), 72h. The settings on record: for IC50: Homo sapiens, Melanocyte, 72 h.
In the next assay the test system is 501mel. Nature of the assay: Cell viability assay (PrestoBlue), 72h. The conditions noted are these: Homo sapiens.
The next assay relates to MM011. Nature of the assay: Cell viability assay (PrestoBlue), 72h. The conditions noted are these: Homo sapiens.
The test system of a further assay is MM074. Nature of the assay: Cell viability assay (PrestoBlue), 72h. The conditions noted are these: Homo sapiens.
A further assay has as its system MM117. Kind of assay: Cell viability assay (PrestoBlue), 72h. The conditions noted are these: Homo sapiens.
The test system of another assay is SKMEL-28. Kind of assay: Cell viability assay (PrestoBlue), 72h. The settings on record: Homo sapiens, SK-MEL-28, 72 h.
Assay [7] has as its system IGR37. Nature of the assay: Cell viability assay (PrestoBlue), 72h. The conditions noted are these: Homo sapiens, IGR-37, 72 h.
Description: (§3) Cells were grown at 37°C in 5% CO2 (10% for Hermes 3A) and were regularly checked for mycoplasma contamination. […] Melanoma cell lines 501mel and SKmel28 were grown in RPMI w/o HEPES (Gibco, Invitrogen) supplemented with 10% FCS and gentamycin. Vemurafenib-resistant cells (501melVemuR and MM074VemuR) were additionally supplemented with 1.5 µM of vemurafenib. Melanoma IGR cell lines (IGR37 and IGR39) were grown in RPMI w/o HEPES (Gibco, Invitrogen) supplemented with 15% FCS and gentamycin.
(§4) To determine the IC50 (half maximal inhibitory concentration) of these cells to various inhibitors, cell viability assays were performed.
(§5) After 72h of treatment with different concentrations of the compounds, cells were treated with PrestoBlue reagent according to the manufacturer's instructions. The absorbance per well was measured with a Cellinsight CX5 microplate reader. Data were analyzed using Prism9 statistical software.
The next assay relates to 501mel^VemuR. Nature of the assay: Cell viability assay (PrestoBlue), 72h. The settings on record: Homo sapiens.
In the next assay the test system is MM074^VemuR. Kind of assay: Cell viability assay (PrestoBlue), 72h. The settings on record: Homo sapiens.
For a further assay, the system named is MM029. Nature of the assay: Cell viability assay (PrestoBlue), 72h. The conditions noted are these: Homo sapiens.
Another assay deals with MM047. Nature of the assay: Cell viability assay (PrestoBlue), 72h. The settings on record: Homo sapiens.
A further assay concerns MM099. Kind of assay: Cell viability assay (PrestoBlue), 72h. The settings on record: Homo sapiens.
Assay [8] relates to IGR37. Nature of the assay: Cell viability assay (PrestoBlue), 72h, last line of Table 2. The conditions noted are these: Homo sapiens, IGR-37, 72 h.
Description: (§6) Cells were grown at 37°C in 5% CO2 (10% for Hermes 3A) and were regularly checked for mycoplasma contamination. […] Melanoma IGR cell lines (IGR37 and IGR39) were grown in RPMI w/o HEPES (Gibco, Invitrogen) supplemented with 15% FCS and gentamycin.
as §4, §5

SMILES strings stand for the structures.

Description for 501mel^VemuR: (§7) Cells were grown at 37°C in 5% CO2 (10% for Hermes 3A) and were regularly checked for mycoplasma contamination. MM patient-derived short-term melanoma cultures (MM011, MM074, MM117, MM029, MM047, MM099) were grown in HAM-F10 (Gibco, Invitrogen) supplemented with 10% Fetal Calf Serum (FCS), 25 mM HEPES, 5.2 mM GLUTAMAX and penicillin-streptomycin. Melanoma cell lines 501mel and SKmel28 were grown in RPMI w/o HEPES (Gibco, Invitrogen) supplemented with 10% FCS and gentamycin. Vemurafenib-resistant cells (501melVemuR and MM074VemuR) were additionally supplemented with 1.5 µM of vemurafenib. Melanoma IGR cell lines (IGR37 and IGR39) were grown in RPMI w/o HEPES (Gibco, Invitrogen) supplemented with 15% FCS and gentamycin.
as §4, §5
Description for Hermes3A: as §6, §4, §5
Description for MM011: as §3, §4, §5
Description for MM029: as §6, §4, §5
Description for MM047: as §6, §4, §5
Description for MM074^VemuR: as §7, §4, §5
Description for MM099: as §6, §4, §5
Description for MM117: as §3, §4, §5
Description for SKMEL-28: as §3, §4, §5

As usually defined, the IC50 is the concentration needed to halve the response being measured. As for `COc1ccc2[nH]c3c(c2c1)CCN[C@]31CS[C@@H]2c3c(OC(C)=O)c(C)c4c(c3[C@H](COC1=O)N1[C@@H]2[C@H]2c3c(cc(C)c(OC)c3O)C[C@@H]([C@@H]1O)N2C)OCO4` [lurbinectedin], the IC50 with all melanoma cells is 0.3 to 4.73 nM; in the assay on Hermes3A it was 2.67 nM; in the assay on 501mel it was 0.37 nM; in the assay with MM011, 0.47 nM; in the assay with MM074, 1.06 nM; in the assay with MM117 it was 0.3 nM. Also, the IC50 with SKMEL-28 stood at 1.17 nM; in the assay with IGR37 [7], 0.5 nM; in the assay with 501mel^VemuR, 1.07 nM; in the assay on MM074^VemuR, 1.36 nM; in the assay on MM029, 1.28 nM; in the assay on MM047, 0.45 nM. Besides, the IC50 with MM099 worked out at 0.73 nM; in the assay with IGR37 [8] it was 0.41 nM. In assay [1], the “colony formation (number of colonies)” value is “significant impact”. Also, in the assay on melanoma cells [2], the melanoma cell proliferation result was “significant inhibition”. Besides, the cell cycle progression result in the assay with melanoma cells 501mel is listed as “notable blockade”. Also, the apoptosis result in the assay with melanoma cells [3] is listed as “induction of apoptosis”. Further, the “RPB1 (RNA pol II elongation subunit) degradation” value in assay [4] is listed as “minimal”. Besides, the “cell viability in 3D culture” value in the assay on MM074 melanospheres [5] is “significant cytotoxic effects”. The “late apoptotic cells positive for Annexin V and propidium iodide” value in the assay with MM074 melanospheres [6] is on record as “substantial population of late apoptotic cells”. Besides, in the assay on Hermes3A (Hermes3A versus melanoma cells), the “sensitivity of non-cancerous Hermes3A immortalized melanocytes compared with the melanoma cells” value is “less sensitive”.
Consider `CC(C)(C)c1nc(-c2cccc(NS(=O)(=O)c3c(F)cccc3F)c2F)c(-c2ccnc(N)n2)s1` [dabrafenib], for which the “cell viability in 3D culture” value in the assay on MM074 melanospheres [5] is listed as “unable to reduce cell viability”. The IC50 was > 50 nM in the assay on Hermes3A; > 50 nM in the assay with 501mel; > 50 nM in the assay with MM011; 4.68 nM in the assay with MM074; > 50 nM in the assay with MM117; 1 nM with SKMEL-28. The IC50 with IGR37 [7] is 25.3 nM; in the assay on 501mel^VemuR it was > 50 nM; with MM074^VemuR, > 50 nM; in the assay with MM029, > 50 nM; in the assay with MM047, > 50 nM; in the assay with MM099, > 50 nM. Further, the IC50 in the assay with IGR37 [8] is > 50 nM.
As for `CCCS(=O)(=O)Nc1ccc(F)c(C(=O)c2c[nH]c3ncc(-c4ccc(Cl)cc4)cc23)c1F` [vemurafenib], the IC50 with Hermes3A was > 10000 nM; in the assay on 501mel, 2440 nM; in the assay on MM011 it was > 10000 nM; in the assay on MM074, 225 nM; in the assay on MM117, 488 nM; in the assay with SKMEL-28, > 10000 nM. Besides, the IC50 in the assay on IGR37 [7] is 517 nM; with 501mel^VemuR it was > 10000 nM; with MM074^VemuR, > 10000 nM; with MM029, > 10000 nM; with MM047, > 10000 nM; with MM099, > 10000 nM. Besides, in the assay on IGR37 [8], the IC50 is > 10000 nM.
`CC(=O)Nc1cccc(-n2c(=O)n(C3CC3)c(=O)c3c(Nc4ccc(I)cc4F)n(C)c(=O)c(C)c32)c1` [trametinib]: the IC50 with Hermes3A is > 50 nM; with 501mel, 3 nM; in the assay with MM011 it was > 50 nM; in the assay on MM074 it was 0.51 nM; in the assay with MM117, 10.2 nM; in the assay on SKMEL-28, 5.12 nM. Besides, the IC50 in the assay with IGR37 [7] was 0.53 nM; with 501mel^VemuR, > 50 nM; in the assay with MM074^VemuR it was 4.65 nM; with MM029, > 50 nM; with MM047, > 50 nM; with MM099, > 50 nM. In addition, the IC50 in the assay with IGR37 [8] is > 50 nM.

Values taken from EP4563149A1, “LURBINECTEDIN, ECUBECTEDIN AND A RELATED COMPOUND FOR USE IN THE TREATMENT OF SKIN CANCERS” (Pharma Mar, S.A., priority 2023, dated 2025).
